From patent publication EP0745595A1, “3-(3-Aryloxyphenyl)-1-(substituted methyl)-s-triazine-2,4,6-oxo or thiotrione herbicidal agents” (American Cyanamid Company, priority 1995, dated 1996)

What was measured:
Type in all cases: in vivo
ZEA MAYS L. = assay: Postemergence herbicidal evaluation, ZEAMX (Corn, Field);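 note: higher means more injury with 8 approaching complete kill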
Method in brief: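 This greenhouse postemergence test treated corn plants about two weeks old. Compounds in a 50/50 acetone/water mixture with 0.5% TWEEN®20 were applied through a spray nozzle at 40 psi. After four to five weeks, injury was scored 0-9 against an untreated control, judging stand, vigor, malformation, size, chlorosis and overall appearance. Repeated tests were averaged.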

GALIUM APARINE = assay: Postemergence herbicidal evaluation, GALAP (Galium); set-up: key to GALAP rating / Herbicidal effect rating, GALAP / GALAP: 0-9 visual rating scale vs untreated control;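 note: higher means more injury with 8 approaching complete kill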
Method in brief: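 In this postemergence greenhouse test, two-week-old Galium aparine seedlings grown in jiffy flats received a 40 psi spray of compound in acetone/water (50/50) with 0.5% TWEEN®20 surfactant. After four to five weeks, stand, vigor, malformation, size, chlorosis and overall appearance were compared with untreated controls on a 0-9 scale, averaging multiple tests.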

[1] = test system: ABUTILON THEOPHRASTI, MEDIC.; assay: Postemergence herbicidal evaluation, ABUTH (Velvetleaf);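 note: higher means more injury with 8 approaching complete kill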
Method in brief: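 This postemergence herbicide test used two-week-old velvetleaf seedlings grown in jiffy flats. Each compound was sprayed at 40 psi as a dispersion in 50/50 acetone/water with 0.5% TWEEN®20 surfactant. Plants then received routine greenhouse care. After four to five weeks, injury was scored visually on a 0-9 scale against a control, and replicate tests were averaged.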

[2] = test system: ECHINOCHLOA CRUS-GALLI, (L) BEAU; assay: Postemergence herbicidal evaluation, ECHCG (Barnyardgrass); set-up: key to ECHCG rating / Herbicidal effect rating, ECHCG / ECHCG: 0-9 visual rating scale vs untreated control
Method in brief: (§1)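 Each value is a 0–9 visual rating of plant appearance compared with control, recorded 4–5 weeks after a 0.125–0.500 kg/ha spray, with multiple tests averaged.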

CHENOPODIUM ALBUM, L. [3] = assay: Postemergence herbicidal evaluation, CHEAL (Lambsquarters, Common);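 note: higher means more injury with 8 approaching complete kill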
Method in brief: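 Postemergence herbicidal activity on Chenopodium album was tested by spraying two-week-old seedlings grown in jiffy flats with compound in acetone/water (50/50) plus 0.5% TWEEN®20, using a 40 psi nozzle. Four to five weeks after treatment, stand, vigor, malformation, size, chlorosis and overall appearance were scored 0-9 relative to controls, with repeat tests averaged.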

IPOMOEA SPP. = assay: Postemergence herbicidal evaluation, IPOSS (Morningglory spp.);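 note: higher means more injury with 8 approaching complete kill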
Method in brief: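 In this greenhouse postemergence herbicide test on Ipomoea spp. (morningglory), compounds in 50/50 acetone/water with 0.5% TWEEN®20 were sprayed at 40 psi onto seedlings about two weeks old grown in jiffy flats. After four to five weeks, injury was scored on a 0-9 scale covering stand, vigor, malformation, size, chlorosis and overall appearance versus control, with repeat tests averaged.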

CHENOPODIUM ALBUM, L. [4] = assay: Preemergence herbicidal evaluation, CHEAL (Lambsquarters, Common);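 note: higher means more injury with 8 approaching complete kill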
Method in brief: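 Seeds mixed with potting soil were planted on about one inch of soil in cups, then sprayed with aqueous acetone solution of test compound at about 0.125 to 0.50 kg per hectare. Plants grown under greenhouse conditions; visual rating on a 0-9 scale versus untreated control at 4-5 weeks.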

[5] = test system: AMBROSIA ARTEMISIIFOLIA, L.; assay: Postemergence herbicidal evaluation, AMBEL (Ragweed, Common);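 note: higher means more injury with 8 approaching complete kill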
Method in brief: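 Postemergence herbicidal activity on AMBEL (common ragweed) was assessed on two-week-old seedlings grown in jiffy flats. Treatment solutions of 50/50 acetone/water with 0.5% TWEEN®20 surfactant were sprayed at 40 psi. After four to five weeks in the greenhouse, plants were scored 0-9 against a control for stand, vigor, malformation, size, chlorosis and overall appearance, with multiple tests averaged.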

[6] = test system: TRITICUM AESTIVUM, CV. APOLLO; assay: Postemergence herbicidal evaluation, TRZAWO (Wheat, Winter, CV. APOLLO);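 note: higher means more injury with 8 approaching complete kill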
Method in brief: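 This greenhouse postemergence test applied compounds to roughly two-week-old wheat seedlings grown in jiffy flats. The spray solution was 50/50 acetone/water with 0.5% TWEEN®20, a polyoxyethylene sorbitan monolaurate, sprayed from a nozzle run at 40 psi. After four to five weeks of standard greenhouse care, injury was scored from 0 to 9 by comparing stand, vigor, malformation, size, chlorosis and overall appearance with a control. Multiple tests were averaged.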

[7] = test system: SETARIA VIRIDIS, (L) BEAU; assay: Postemergence herbicidal evaluation, SETVI (Foxtail, Green); set-up: key to SETVI rating / Herbicidal effect rating, SETVI / SETVI: 0-9 visual rating scale vs untreated control
Method in brief: as §1

[8] = test system: ORYZA SATIVA, L. TEBONNET; assay: Rice tolerance to post-transplant applications under flooded paddy conditions, ORYSAT (Rice, Tebonnet); conditions: post-transplanted rice
Method in brief: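 Greenhouse pots of silt loam, each with two transplanted ten-day-old seedlings, are held under 1.5 to 3 cm of standing water. Three days later the compound is applied to the flooded surface at about 0.5, 0.25, 0.125 or 0.063 kg/ha. Damage is scored visually 0-9 after 3-4 weeks.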

Compound: Cn1c(=O)[nH]c(=O)n(-c2cc(Oc3c(F)cc(C(F)(F)F)cc3Cl)ccc2[N+](=O)[O-])c1=O [D, reference compound]
- ZEAMX (ZEA MAYS L.; Rate 0.008 kg/ha): 1.0
- ZEAMX (ZEA MAYS L.; Rate 0.016 kg/ha): 3.3
- ZEAMX (ZEA MAYS L.; Rate 0.031 kg/ha): 3.3
- ZEAMX (ZEA MAYS L.; Rate 0.063 kg/ha): 4.2
- ZEAMX (ZEA MAYS L.; Rate 0.125 kg/ha): 5.5
- GALAP (GALIUM APARINE; Rate 0.008 kg/ha): 4.0
- GALAP (GALIUM APARINE; Rate 0.016 kg/ha): 8.0
- GALAP (GALIUM APARINE; Rate 0.031 kg/ha): 9.0
- GALAP (GALIUM APARINE; Rate 0.063 kg/ha): 8.5
- GALAP (GALIUM APARINE; Rate 0.125 kg/ha): 9.0
- ABUTH ([1]; Rate 0.008 kg/ha): 0.0
- ABUTH ([1]; Rate 0.016 kg/ha): 8.3
- ABUTH ([1]; Rate 0.031 kg/ha): 8.7
- ABUTH ([1]; Rate 0.063 kg/ha): 9.0
- ABUTH ([1]; Rate 0.125 kg/ha): 9.0
- ECHCG ([2]; Rate 0.016 kg/ha): 3.0
- ECHCG ([2]; Rate 0.031 kg/ha): 1.5
- ECHCG ([2]; Rate 0.063 kg/ha): 2.0
- ECHCG ([2]; Rate 0.125 kg/ha): 2.5
- CHEAL (CHENOPODIUM ALBUM, L. [3]; Rate 0.008 kg/ha): 7.0
- CHEAL (CHENOPODIUM ALBUM, L. [3]; Rate 0.016 kg/ha): 7.3
- CHEAL (CHENOPODIUM ALBUM, L. [3]; Rate 0.031 kg/ha): 6.3
- CHEAL (CHENOPODIUM ALBUM, L. [3]; Rate 0.063 kg/ha): 7.0
- CHEAL (CHENOPODIUM ALBUM, L. [3]; Rate 0.125 kg/ha): 9.0
- IPOSS (IPOMOEA SPP.; Rate 0.016 kg/ha): 7.3
- IPOSS (IPOMOEA SPP.; Rate 0.031 kg/ha): 7.7
- IPOSS (IPOMOEA SPP.; Rate 0.063 kg/ha): 7.3
- IPOSS (IPOMOEA SPP.; Rate 0.125 kg/ha): 9.0
- CHEAL (CHENOPODIUM ALBUM, L. [4]; Rate 0.031 kg/ha): 9.0
- CHEAL (CHENOPODIUM ALBUM, L. [4]; Rate 0.063 kg/ha): 9.0
- CHEAL (CHENOPODIUM ALBUM, L. [4]; Rate 0.125 kg/ha): 9.0
- CHEAL (CHENOPODIUM ALBUM, L. [4]; Rate 0.250 kg/ha): 9.0
- AMBEL ([5]; Rate 0.008 kg/ha): 5.0
- AMBEL ([5]; Rate 0.016 kg/ha): 7.3
- AMBEL ([5]; Rate 0.031 kg/ha): 8.0
- AMBEL ([5]; Rate 0.063 kg/ha): 8.0
- AMBEL ([5]; Rate 0.125 kg/ha): 8.5
- TRZAWO ([6]; Rate 0.016 kg/ha): 3.5
- TRZAWO ([6]; Rate 0.031 kg/ha): 4.5
- TRZAWO ([6]; Rate 0.063 kg/ha): 5.3
- TRZAWO ([6]; Rate 0.125 kg/ha): 5.3
- SETVI ([7]; Rate 0.008 kg/ha): 0.0
- SETVI ([7]; Rate 0.016 kg/ha): 1.0
- SETVI ([7]; Rate 0.031 kg/ha): 1.3
- SETVI ([7]; Rate 0.063 kg/ha): 1.3
- SETVI ([7]; Rate 0.125 kg/ha): 1.5
- ORYSAT ([8]; Rate 0.031 kg/ha): 3.0
- ORYSAT ([8]; Rate 0.063 kg/ha): 3.0
- ORYSAT ([8]; Rate 0.125 kg/ha): 3.0
- ORYSAT ([8]; Rate 0.250 kg/ha): 6.0
